The supplement of paper PMC10307832

How the values were obtained:
Test in all cases: relative viability (nuclei count vs DMSO), 5 days (fraction); higher = more cells survive
[1] = compound: O=S(=O)(c1ccccc1)N(CC(F)(F)F)c1ccc(C(O)(C(F)(F)F)C(F)(F)F)cc1 + O=C(c1cc(Cc2n[nH]c(=O)c3ccccc23)ccc1F)N1CCN(C(=O)C2CC2)CC1 [Olaparib] (partner 8 µM)
In short: (§1)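 Relative viability is defined as nuclei in treated wells over nuclei in vehicle wells. Duplicate plates were run and medians reported. Lung cancer cell lines in 1536-well plates were dosed by pin tool one day after seeding, with one drug or with a fixed anchor-drug dose plus five library-drug doses (not always all listed) in √10 steps, and nuclei were counted after 5 days.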

[2] = compound: O=S(=O)(c1ccccc1)N(CC(F)(F)F)c1ccc(C(O)(C(F)(F)F)C(F)(F)F)cc1 + N=C(N)NC(=N)NCCc1ccccc1 [Phenformin] (partner 250 µM)
In short: as §1

[3] = compound: C1=CC2=C(C=CC(=C2)C=C3C(=O)NC(=NCC4=CC=CS4)S3)N=C1 [RO-3306] + CC(=O)c1c(C)c2cnc(Nc3ccc(N4CCNCC4)cn3)nc2n(C2CCCC2)c1=O [Palbociclib] (partner 0.5 µM)
In short: as §1

[4] = compound: C1=CC2=C(C=CC(=C2)C=C3C(=O)NC(=NCC4=CC=CS4)S3)N=C1 [RO-3306] + Cc1cc(Nc2cc(N3CCN(C)CC3)nc(Sc3ccc(NC(=O)C4CC4)cc3)n2)n[nH]1 [Tozasertib] (partner 0.1 µM)
In short: as §1

[5] = compound: O=S(=O)(c1ccccc1)N(CC(F)(F)F)c1ccc(C(O)(C(F)(F)F)C(F)(F)F)cc1 + C[C@@H](Oc1cc(-c2cnn(C3CCNCC3)c2)cnc1N)c1c(Cl)ccc(F)c1Cl [Crizotinib] (partner 1 µM)
In short: as §1

| Cell Line | relative viability ([1]; first compound 0.8 µM) | relative viability ([1]; first compound 2.53 µM) | relative viability ([1]; first compound 8 µM) | relative viability ([2]; first compound 0.8 µM) | relative viability ([2]; first compound 2.53 µM) | relative viability ([2]; first compound 8 µM) | relative viability ([3]; first compound 0.01 µM) | relative viability ([3]; first compound 0.03162 µM) | relative viability ([3]; first compound 0.1 µM) | relative viability ([3]; first compound 0.3162 µM) | relative viability ([3]; first compound 1 µM) | relative viability ([4]; first compound 0.01 µM) | relative viability ([4]; first compound 0.03162 µM) | relative viability ([4]; first compound 0.1 µM) | relative viability ([4]; first compound 0.3162 µM) | relative viability ([4]; first compound 1 µM) | relative viability ([5]; first compound 0.8 µM) | relative viability ([5]; first compound 2.53 µM) | relative viability ([5]; first compound 8 µM) |
| --- | --- | --- | --- | --- | --- | --- | --- | --- | --- | --- | --- | --- | --- | --- | --- | --- | --- | --- | --- |
| NCI-H1650 | 0.792 | 0.678 | 0.743 | 0.347 | 0.366 | 0.384 | 0.423 | 0.246 | 0.285 | 0.321 | 0.274 | 0.398 | 0.366 | 0.345 | 0.309 | 0.316 | 0.972 | 0.972 | 1.04 |
| EKVX | 0.836 | 0.757 | 0.661 | 0.226 | 0.199 | 0.228 | 0.346 | 0.37 | 0.332 | 0.447 | 0.393 | 0.415 | 0.361 | 0.382 | 0.359 | 0.356 | 1.09 | 0.85 | 0.898 |
| NCI-H1975 | 1.02 | 0.762 | 0.875 | 0.452 | 0.439 | 0.414 | 0.614 | 0.453 | 0.581 | 0.549 | 0.553 | 0.834 | 0.871 | 0.769 | 0.718 | 0.284 | 1.03 | 1.01 | 0.919 |
| HCC-78 | 0.908 | 0.816 | 0.765 | 0.631 | 0.612 | 0.581 | 0.483 | 0.518 | 0.504 | 0.548 | 0.403 | 0.436 | 0.4 | 0.515 | 0.431 | 0.448 | 0.375 | 0.285 | 0.334 |
| LXF-289 | 1.03 | 0.91 | 1.04 | 0.504 | 0.475 | 0.463 | 0.62 | 0.631 | 0.627 | 0.577 | 0.616 | 0.216 | 0.199 | 0.187 | 0.181 | 0.199 | 0.793 | 0.721 | 0.689 |
| RERF-LC-KJ | 0.853 | 0.893 | 0.88 | 0.449 | 0.364 | 0.408 | 1.27 | 0.993 | 1.16 | 1.1 | 1.08 | 0.634 | 0.434 | 0.546 | 0.521 | 0.463 | 0.787 | 0.749 | 0.773 |
| NCI-H1944 | 0.407 | 0.39 | 0.396 | 0.209 | 0.19 | 0.197 | 0.336 | 0.339 | 0.34 | 0.333 | 0.333 | 0.235 | 0.25 | 0.234 | 0.259 | 0.242 | 1.2 | 1.11 | 1.04 |
| BEN | 0.889 | 0.875 | 0.876 | 0.262 | 0.249 | 0.283 | 0.49 | 0.438 | 0.458 | 0.473 | 0.476 | 0.548 | 0.47 | 0.622 | 0.608 | 0.496 | 0.952 | 0.89 | 0.766 |
| ABC-1 |  | 0.763 | 0.638 | 0.238 | 0.246 | 0.335 | 0.869 | 0.406 | 0.66 | 0.799 | 0.458 | 0.145 | 0.172 | 0.222 | 0.177 | 0.14 | 1.19 | 1.07 | 1.01 |
| H3255 | 0.533 | 0.488 | 0.439 | 0.382 | 0.373 | 0.393 | 0.299 | 0.373 | 0.294 | 0.305 | 0.321 | 0.621 | 0.372 | 0.611 | 0.692 | 0.466 | 0.755 | 0.776 | 0.829 |
| NCI-H1355 | 0.824 | 0.737 | 0.719 | 0.467 | 0.397 | 0.438 | 0.421 | 0.406 | 0.405 | 0.412 | 0.38 | 0.473 |  | 0.532 | 0.515 | 0.491 | 1.22 | 0.98 | 0.935 |
| HCC-366 | 0.414 | 0.37 | 0.281 | 0.693 | 0.568 | 0.48 | 0.531 | 0.395 | 0.381 | 0.382 | 0.316 | 0.123 | 0.0945 | 0.0992 | 0.0958 | 0.0525 | 0.903 | 0.54 | 0.314 |
| COR-L 105 | 0.69 | 0.602 | 0.546 | 0.455 | 0.422 | 0.492 | 0.392 | 0.408 | 0.412 | 0.404 | 0.385 | 0.361 | 0.337 | 0.329 | 0.379 | 0.32 | 0.876 | 0.839 | 0.661 |
| NCI-H2228 | 0.678 | 0.578 | 0.589 | 0.319 | 0.286 | 0.293 | 0.753 | 0.404 | 0.622 | 0.771 | 0.433 | 0.225 | 0.219 | 0.221 | 0.168 | 0.223 | 0.389 | 0.354 | 0.462 |
| NCI-H1437 | 0.598 | 0.591 | 0.597 | 0.297 | 0.239 | 0.342 | 0.312 | 0.316 | 0.294 | 0.317 | 0.289 | 0.485 | 0.328 | 0.384 | 0.397 | 0.474 | 0.909 | 0.706 | 0.744 |
